Data from patent US6989435B2, “Compounds and methods to inhibit or augment an inflammatory response” (Cambridge University Technical Services Ltd., priority 1997, dated 2006).
Marks after values point to notes of the source that are not given here. Values belong to the compound of their own block, whether it stands above or below them. Positions of bridges follow the written chain, without caps; N, C: chain ends. Non-standard residues stand in square brackets, D forms with d. Residues, ends and D or L forms follow the SMILES beside them. No end group written: not given here.

Tests used:
[1] = target: T1, Duffy Antigen Receptor for Chemokines (DARC) (Homo sapiens, UniProt Q16570); experiment: DARC binding: competition with 125I-labeled MCP-1 on red blood cells; conditions: for DUFFY SELECTIVITY: estimated ka for binding to red blood cells divided by average inhibitory ED50 versus each of the chemokines
T1 sequence (Q16570 1-336): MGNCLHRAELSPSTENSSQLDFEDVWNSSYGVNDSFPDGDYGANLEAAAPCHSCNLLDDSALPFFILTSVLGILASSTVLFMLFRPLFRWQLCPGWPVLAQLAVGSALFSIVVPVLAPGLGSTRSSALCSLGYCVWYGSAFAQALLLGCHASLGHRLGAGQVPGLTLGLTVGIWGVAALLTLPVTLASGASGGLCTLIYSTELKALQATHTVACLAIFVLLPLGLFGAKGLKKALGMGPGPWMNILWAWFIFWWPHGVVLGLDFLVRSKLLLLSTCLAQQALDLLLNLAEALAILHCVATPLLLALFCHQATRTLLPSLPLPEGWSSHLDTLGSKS

[2] = system: chemokine-induced THP-1 migration (MCP-1, MIP1α, IL8, SDF1α); experiment: Trans-well THP-1 migration assay, across the chemokines tested; format: cell-based, human; conditions: for CC SPECIFICITY: Table 7, average inhibitory ED50 versus SDF1 and IL8 divided by average inhibitory ED50 versus MCP-1 and MIP1α
Experimental: To determine whether an agent inhibits a chemokine-induced activity, such as macrophage recruitment, varying amounts of the agent are mixed with cells in the presence of a known chemoattractant. […] Chemokine (such as MCP-1, MIP1α, IL8 or SDF-1α), at a concentration known to cause significant migration of THP-1 cells in the trans-well migration assay, is placed in the lower compartment (FIG. 1). […] After incubation, the cells are gently removed from the top of the filter with a pipette, 20 μl of 20 mM EDTA in simple PBS is added into each top well, and incubated for 20 minutes at 4° C. The filter is carefully flushed with media using a gentle flow, and removed. […] The media is carefully aspirated from each well, and the converted dye is solubilized by 20 μl of DMSO. Absorbance of converted dye is measured at a wavelength of 595 nm using an ELISA plate reader. The number of migrated cells in each well is then determined by interpolation of the standard curve (see also Imai et al., J. Biol. Chem., 272, 15036 (1997)). […] The framed filter was aligned with the holes in the corner of the filter frame and placed over the wells. Five×10^4 THP-1 cells in 25 μl of RPMI-1640 culture media were added to the upper compartment. Peptides were dissolved in Milli Q water and then serially diluted in culture medium. In most cases, the serially diluted peptides were added to the upper compartment of the chemotaxis chamber. […] After incubation, the cells were gently removed from the top of the filter with a pipette, 20 μl of 20 mM EDTA in PBS was added into each top well, and the mixture was incubated for 20 minutes at 4° C. The filter was then carefully flushed with media using a gentle flow, and removed. […] The media was carefully aspirated from each well, and the converted dye was solubilized by 20 μl of DMSO. Absorbance of converted dye was measured at a wavelength of 595 nm using an ELISA plate reader. […] Representative chemokines included a beta-chemokine (“CC”), MIP-1α, and two alpha-chemokines (“CXC”), IL-8 and SDF-1α. […]

[3] = system: MCP-1 induced THP-1 migration; experiment: Trans-well THP-1 migration assay, MCP-1 as chemoattractant; format: cell-based, human
Experimental: (§1) FIG. 1 is a schematic of the trans-well migration assay. In most experiments, the peptide (wavy line) is added to the upper well with about 50,000 cells (O). The upper and lower wells are separated by a 5 μm or 8 μm pore size PVP-free membrane (- - - -). Chemokine (●) is added to the lower well. After 4 hours, the number of cells that have migrated through the membrane are measured (◯ in lower well).
To determine whether an agent inhibits a chemokine-induced activity, such as macrophage recruitment, varying amounts of the agent are mixed with cells in the presence of a known chemoattractant. For example, a range of known concentrations of an agent, e.g., a chemokine peptide, is incubated with a defined number (e.g., 10^4-10^6) of human THP-1 monocyte cells in individual wells of the top compartment of a trans-well plate. Chemokine (such as MCP-1, MIP1α, IL8 or SDF-1α), at a concentration known to cause significant migration of THP-1 cells in the trans-well migration assay, is placed in the lower compartment (FIG. 1). Cells are then incubated at 37° C. for a period sufficient to allow migration, e.g., 4 hours. After incubation, the cells are gently removed from the top of the filter with a pipette, 20 μl of 20 mM EDTA in simple PBS is added into each top well, and incubated for 20 minutes at 4° C. The filter is carefully flushed with media using a gentle flow, and removed. A standard curve consisting of a two-fold dilution series of THP-1 cells (in 29 μl) is prepared to accurately quantify the number of cells that have migrated. Migrated cells are stained with 3 μl of MTT stock dye solution which is added directly into each well (5 mg/ml in RPMI-1640 without phenol red, Sigma Chemical Co.) and incubated at 37° C. for 4 hours. The media is carefully aspirated from each well, and the converted dye is solubilized by 20 μl of DMSO. Absorbance of converted dye is measured at a wavelength of 595 nm using an ELISA plate reader. The number of migrated cells in each well is then determined by interpolation of the standard curve (see also Imai et al., J. Biol. Chem., 272, 15036 (1997)).
(§2) Any method suitable for counting cells can be used, for example, counting with a hemocytometer, incubation of the cells with MTT (see above), or FACS analysis. A negative control assay is also performed, using TGF-β or another non-chemokine chemoattractant (e.g., IL1β or TNFα). To assess whether the agent is cytotoxic, the same concentrations of agent are incubated with THP-1 cells. Agents which 1) are not cytotoxic at levels which inhibit migration, 2) are ineffective at inhibiting the negative control-induced migration, and 3) reduce or inhibit chemokine-induced THP-1 migration, are agents which fall within the scope of the invention.
(§3) For this assay, THP-1 cells were maintained at a density of 4×10^5 cells per ml in RPMI-1640 supplemented with 10% fetal calf serum+20 μM 2-mercaptoethanol. Chemotaxis was induced in a 96-well disposable chemotaxis chamber fitted with a […] polycarbonate filter (PVP free, ChemoTX, Neuroprobe Inc., Cabin John). Twenty-nine μl of chemoattractant (recombinant human chemokine; 50 ng/ml, i.e., 5.9 nM) or control (100 ng/ml TGFβ) was added to the lower compartment of each well. The framed filter was aligned with the holes in the corner of the filter frame and placed over the wells. Five×10^4 THP-1 cells in 25 μl of RPMI-1640 culture media were added to the upper compartment. Peptides were dissolved in Milli Q water and then serially diluted in culture medium. In most cases, the serially diluted peptides were added to the upper compartment of the chemotaxis chamber. The chamber was incubated at 37° C. in a humidified atmosphere of 5% CO2 for 4 hours.
After incubation, the cells were gently removed from the top of the filter with a pipette, 20 μl of 20 mM EDTA in PBS was added into each top well, and the mixture was incubated for 20 minutes at 4° C. The filter was then carefully flushed with media using a gentle flow, and removed. […]

[4] = system: IL8 induced THP-1 migration; experiment: Trans-well THP-1 migration assay, IL8 as chemoattractant; format: cell-based, human; conditions: Table 6; n.s. = no statistically significant inhibition
Experimental: as §1
(§4) To determine whether an agent inhibits a chemokine-induced activity, such as macrophage recruitment, varying amounts of the agent are mixed with cells in the presence of a known chemoattractant. For example, a range of known concentrations of an agent, e.g., a chemokine peptide, is incubated with a defined number (e.g., 10^4-10^6) of human THP-1 monocyte cells in individual wells of the top compartment of a trans-well plate. […] A standard curve consisting of a two-fold dilution series of THP-1 cells (in 29 μl) is prepared to accurately quantify the number of cells that have migrated. […] Absorbance of converted dye is measured at a wavelength of 595 nm using an ELISA plate reader. The number of migrated cells in each well is then determined by interpolation of the standard curve (see also Imai et al., J. Biol. Chem., 272, 15036 (1997)). […]

[5] = system: SDF-1α induced THP-1 migration; experiment: Trans-well THP-1 migration assay, SDF-1α as chemoattractant; format: cell-based, human; conditions: Table 6; n.s. = no statistically significant inhibition
Experimental: as §1, §4

[6] = system: TGFβ1 induced THP-1 migration; experiment: Trans-well THP-1 migration assay, TGFβ1 as non-chemokine control chemoattractant; format: cell-based, human; conditions: Table 6; n.s. = no statistically significant inhibition, even at 100 μM
Experimental: as §2
as §3, with “In most cases, the serially diluted peptides were added to the upper compartment of the chemotaxis chamber. The chamber was incubated at 37° C. in a humidified atmosphere of 5% CO2 for 4 hours.” left out
After incubation, the cells were gently removed from the top of the filter with a pipette, 20 μl of 20 mM EDTA in PBS was added into each top well, and the mixture was incubated for 20 minutes at 4° C. […] A standard curve was prepared to accurately quantify the number of THP-1 cells that had migrated. […] Absorbance of converted dye was measured at a wavelength of 595 nm using an ELISA plate reader. The number of cells that had migrated in each well was determined by interpolation of the standard curve.
To investigate the receptor specificity of peptide 3 inhibition, the ED50 was determined for peptide 3(1-12)[MCP-1] […]

Kd [1]: > 50 µM
Compound: NCCCC[C@H](NC(=O)[C@H](CCC(N)=O)NC(=O)[C@@H](N)CCCCN)C(=O)O [KQK]

Compound: CC[C@H](C)[C@H](NC(=O)[C@H](C)NC(=O)[C@H](CC(=O)O)NC(=O)[C@@H]1CCCN1C(=O)[C@H](CCC(N)=O)NC(=O)[C@H](C)N)C(=O)N[C@@H](CC(N)=O)C(=O)N[C@@H](C)C(=O)N1CCC[C@H]1C(=O)N[C@H](C(=O)N[C@H](C(=O)N[C@@H](CS)C(=O)N[C@@H](CS)C(=O)O)[C@@H](C)O)C(C)C [Peptide 1] (H-AQPDAINAPVTCC-OH)
Kd [1]: > 100 µM

DUFFY SELECTIVITY ([1]; Table 7): 8.82
Compound: -CQVWKQKPDA C- ([dC][dQ][dV][dW][dK][dQ][dK][dP][dD][dA][dC]; disulfide 1-11) [CRD-Cys13pep3[3-12]]

Compound: APG [reference compound]
inhibition of THP-1 cell migration induced by MCP-1, MIP1α, IL-8 and SDF1α, in words [2]: None of these significantly inhibited

Compound: CADPKQKWVQ [Peptide 3[3-12]]
CC SPECIFICITY [2]: 1.2
DUFFY SELECTIVITY ([1]; Table 7): 1.21

Compound: CLDPKKEWIQ [SEE]
ED50 versus MCP1, THP-1 migration ([3]; Table 6, n.s. = no statistically significant inhibition): n.s.
ED50 versus IL8, THP-1 migration [4]: n.s.
ED50 versus SDF1α, THP-1 migration [5]: n.s.
ED50 versus TGFβ1, THP-1 migration [6]: n.s.
specificity for the cognate chemokine over the other chemokines tested [2]: > 100 fold
CC SPECIFICITY [2]: >100

IC50 ([3]; derivatives of leu4ile11peptide 3, read-out: MCP-1 inhibitory activity in the THP-1 transwell assay): 0.2 to 0.4 µM
DUFFY SELECTIVITY ([1]; Table 7): 4.59
Compound: CQVWKQKPDAC [LRD-Cys13leu4ile11pep3[3-12]]

Compound: DYFETSSQCSKPGV [Pep2[MIP1α]]
Kd [1]: > 50 µM
DUFFY SELECTIVITY (peptide 2 family) ([1]; Table 7, ka for binding to red blood cells divided by the ka for binding THP-1 cells): >100^d

Compound: EICADP [Peptide 3[1-6]]
CC SPECIFICITY [2]: 0.7

Compound: EICADPKQKWIQ [Ile11peptide 3]
selectivity ratio (CC versus CXC chemokines) ([2]; >1 = greater inhibition of CC chemokines, <1 = of CXC chemokines): 0.9
CC SPECIFICITY [2]: 0.9

DUFFY SELECTIVITY ([1]; Table 7): 0.59
Compound: EICADPSEEWVQ [Ser7Glu8Glu9pep 3]
CC SPECIFICITY [2]: 1.6
